Key:
Pancreatic islets = settings: pancreatic islets (Davani B et al. 2000); cited from earlier work
human 11βHSD1 enzyme = biological target: T1, human 11βHSD1 enzyme (Homo sapiens, UniProt P28845); experiment: HeLa GRE4-βGal/11βHSD1 cell reporter assay (cortisone to cortisol, β-galactosidase readout); assay type: cell-based; settings: HeLa GRE4-βGal/11βHSD1 cells, cortisone 1 μM, overnight incubation, absorbance at 570 nm
T1 construct: a construct containing full-length human 11βHSD1 enzyme (in pCMVHyg); expressed in transfected cells
From the text: HeLa cells (human cervical carcinoma derived cells) were stably transfected with a construct containing four copies of the glucocorticoid response element (GRE) linked to a beta-galactosidase reporter gene (3 kb lac Z gene derived from pSV-B-galactosidase). These cells were then further stably transfected with a construct containing full-length human 11βHSD1 enzyme (in pCMVHyg) to create GRE4-βGal/11βHSD1 cells. The principal of the assay is as follows. Cortisone is freely taken up by the cells and is converted to cortisol by 11βHSD1 oxo-reductase activity and cortisol (but not cortisone) binds to and activates the glucocorticoid receptor. Activated glucocorticoid receptor then binds to the GRE and initiates transcription and translation of β-galactosidase. Enzyme activity can then be assayed with high sensitivity by colourimetric assay.
Cells were routinely cultured in DMEM (Invitrogen, Paisley, Renfrewshire, UK) containing 10% foetal calf serum (LabTech), 1% glutamine (Invitrogen), 1% penicillin & streptomycin (Invitrogen), 0.5 mg/ml G418 (Invitrogen) & 0.5 mg/ml hygromycin (Boehringer). Assay media was phenol red free-DMEM containing 1% glutamine, 1% penicillin & streptomycin.
Compounds (1 mM) to be tested were dissolved in dimethyl sulphoxide (DMSO) and serially diluted into assay media containing […]. […]
A cocktail (25 μl) consisting of 10× Z-buffer (600 mM Na2HPO4, 400 mM NaH2PO4.2H2O, 100 mM KCl, 10 MM MgSO4.7H2O, 500 mM β-mercaptoethanol, pH 7.0), SDS (0.2%), chlorophenol red-β-D-galactopyranoside (5 mM, Roche Diagnostics) was added per well and plates incubated at 37° C. for 3-4 hours. β-Galactosidase activity was indicated by a yellow to red colour change (absorbance at 570 nm) measured using a Tecan Spectrafluor Ultra.
The calculation of median inhibitory concentration (IC50) values for the inhibitors was performed using Origin 6.0 (Microcal Software, Northampton Mass. USA). Dose response curves for each inhibitor were plotted as OD units at each inhibitor concentration with relation to a maximum signal (cortisone, no compound) and IC50 values calculated. […]

T1 sequence (P28845 whole entry): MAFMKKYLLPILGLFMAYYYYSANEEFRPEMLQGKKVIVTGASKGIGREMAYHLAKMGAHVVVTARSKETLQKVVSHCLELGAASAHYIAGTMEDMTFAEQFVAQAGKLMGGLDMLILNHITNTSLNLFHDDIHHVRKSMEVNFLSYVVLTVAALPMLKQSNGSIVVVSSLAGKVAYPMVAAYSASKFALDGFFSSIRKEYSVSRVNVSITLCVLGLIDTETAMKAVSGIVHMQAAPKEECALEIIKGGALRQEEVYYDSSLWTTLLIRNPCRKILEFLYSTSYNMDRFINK

| SMILES | melting point | further results |
| --- | --- | --- |
| CC1(C)[C@@H](OC(=O)CCC(=O)O)CC[C@]2(C)[C@H]3C(=O)C=C4[C@@H]5C[C@@](C)(C(=O)O)CC[C@]5(C)CC[C@@]4(C)[C@]3(C)CC[C@@H]12 [carbenoxolone] |  | effects of 11-dehydocorticosterone on insulin release (Pancreatic islets): can inhibit the effects of 11-dehydocorticosterone on insulin release |
| Cc1ccc(C(=O)Cc2ccccc2)cc1 [Reference Example 11, (Benzyl)-(4-methylphenyl)-ketone] | 107 to 111 °C |  |
| Cc1ccc(C(=O)CCc2ccc(N3CCN(c4ccncc4)CC3)cc2)cc1 [Reference Example 55, {4-[1-(Pyrid-4-yl)piperazin-4-yl]phenethyl}-(4-methylphenyl)-ketone] | 114 to 115 °C |  |
| O=C(c1ccccc1)C(Cc1ccc(Cl)cc1)c1cccnn1 (centres unmarked) [Example 13, [2-(4-Chlorophenyl)-1-(pyridazin-3yl)ethyl]-(phenyl)-ketone] | 140 to 142 °C |  |
| O=C(Cc1ccc(Br)cc1)c1ccc(Cl)cc1 [RE 3, (4-Bromobenzyl)-(4-chlorophenyl)-ketone] | 125 to 126 °C |  |
| O=C(Cc1ccc(Cl)c(Cl)c1)c1ccc(Cl)cc1 [Example 4, (4-Chlorophenyl)-(3,4-dichlorophenylmethyl)-ketone] | 99 to 103 °C |  |
| O=C(c1ccc(Cl)cc1)C(Cn1cncn1)c1ccc(Cl)cc1 (stereo not drawn) [Reference Example 16, (4-Chlorophenyl)-[α-(1,2,4-triazol-1-ylmethyl)-4-chlorobenzyl]-ketone] | 126 to 128 °C |  |
| COc1ccc(C(=O)Cc2ccccc2)cc1 [Reference Example 5, (4-Methoxyphenyl)-(benzyl)-ketone] | 68 to 69 °C |  |
| O=C(CS(=O)(=O)c1ccccc1)c1ccccn1 [Example 100, (Phenylsulphonylmethyl)-(pyrid-2-yl)-ketone] | 101 to 103 °C |  |
| Cc1ccc(C(=O)Cc2ccsc2)cc1 [Example 3, (Thien-3-ylmethyl)-(4-methylphenyl)-ketone] |  | IC50 (human 11βHSD1 enzyme): 76.8 nM |
| O=C(Cn1cnc2ccccc21)c1ccc(Cl)cc1Cl [Example 7, (Benzimidazol-1-ylmethyl)-(2,4-dichlorophenyl)-ketone] | 130 to 132 °C |  |
| O=C(Cc1ccc(Cl)cc1)c1ccc(Br)cc1 [Reference Example 3, (4-Bromophenyl)-(4-chlorobenzyl)-ketone] | 128 to 129 °C |  |
| O=C(c1cccnc1)C(Cc1ccc(F)cc1)c1ccccc1 (stereo not drawn) [Example 10, [α-(4-Fluorobenzyl)benzyl]-(pyrid-3-yl)-ketone] | 100 to 102 °C |  |
| CC(=O)Nc1ccc(OCC(=O)c2ccc(Cl)cc2)cc1 [Example 155, (4-Chlorophenyl)-(4-acetylaminophenoxymethyl)-ketone] |  | IC50 (human 11βHSD1 enzyme): 153 nM |
| O=C(CCc1ccc(F)cc1)c1ccc(C(F)(F)F)cc1 [Example 19, (4-Fluorophenethyl)-(4-trifluoromethylphenyl)-ketone] | 66 to 67 °C |  |
| O=C(CS(=O)(=O)N1CCCC1)c1ccc(F)cc1 [Example 79, (4-Fluorophenyl)-(pyrrolidin-1-ylsulphonylmethyl)-ketone] |  | IC50 (human 11βHSD1 enzyme): 93.5 nM |
| Cc1ccc(CC(C(=O)c2ccccc2)N2CCCCC2)cc1 (centres unmarked) | 71 to 72 °C |  |

Source: patent US20050272036A1, “Ketones” (priority 2002, published 2005)
